Source: patent publication EP0638309A1, “Substances inhibiting proteic adp ribosilation suitable to prevent the diabetes mellitus complications” (ISTITUTO BIOCHIMICO ITALIANO GIOVANNI LORENZINI S.p.A., priority 1993, dated 1995)

Experiments:
[1] = tested on: 5 YSY neuroblastoma; assay: Myoinositol metabolism (accumulation and incorporation) in neuroblastoma cells cultured in glucose; type: cell-based; conditions: glucose 30 mM, substance 10⁻⁵ M; for Myoinositol Incorporation: fraction linked to the membranes
Experimental: A diabetic neuropathy in vitro model has been carried out using neuroblastoma cells cultured in chronic hyperglucosemia conditions. This condition causes the typical diabetes mellitus dismetabolic effects as the polyols (sorbitol) accumulation, the myoinositol reduction and the reduction of the Na pump functionality. […] et al. - Alan R., Liss. […] In the groups from 2) to 4) glucose (30 mM) has been added to the culture renewing the culture medium and then adding glucose every 72 hours, during a three weeks period. In the group 3), at the same time of the glucose, one of the substances inhibiting proteic ADP-ribosilation reported in the table 1 (amount 10^-5 M) has been added. In the group 4), at the same time of the glucose one of the substances non inhibiting proteic ADP-ribosilation reported in the table 1 (dermatan sulphate and tolrestat) in amount 10^-5 M has been added. On the experimental groups above described also the myoinositol metabolism alteration has been studied which has been valued by the method described by Yorek et al., in "Diabetes", pag. […]

[2] = tested on: substance P axonal transport; assay: Substance P axonal transport in ligated sciatic nerve of alloxan-diabetic rats; type: in vivo; conditions: for anterograde and retrograde accumulation of substance P, in words: 10 mg/kg daily; for substance P content, NSc: contralateral non-ligated sciatic nerve; for substance P content, NSc / substance P content, D / substance P content, P2 / substance P content, P1: ± ES; for substance P content, D: distal segment; for substance P content, P1: proximal segment contiguous to ligature
From the text: The effectiveness verification of the substances inhibiting proteic ADP-ribosilation in preventing the diabetes mellitus complications has been carried out in vivo on rats in diabetes mellitus models induced by alloxan. With this purpose, […] substance P axonal transport in the five following experimental groups, each consisting of N° 8 rats: • 1) control group; • 2) diabetic rats group; • 3) diabetic rats group treated with vitamin K1 (substance inhibiting the proteic ADP-ribosilation); • 4) diabetic rats group treated with arachidic acid (substance inhibiting the proteic ADP-ribosilation); • 5) diabetic rats group treated with dermatan sulphate (substance non inhibiting proteic ADP-ribosilation).
The Sprague Dawley strain rats used, 250 gr weight, male sex, were supplied by Charles River.
(§1) The diabetes has been induced in the rats of the groups from 2) to 5) by a single subcutaneous injection of 100 mg/kg of alloxan dissolved in pH 4.5 0.1 M citrate-phosphate buffer solution.
The pharmacological treatment of the groups 3) and 5) respectivelly with vitamin K1 and dermatansulphate, has been carried out by intraperitoneal administration of said substances dissolved in physiologic solution at 10 mg/kg dose. […] Groups 1) and 2) have been injected with an equivalent volume of physiologic solution.
(§2) The pharmacological treatment started 7 days after the diabetes induction and prosecuted until the sacrifice with daily administration.
To estimate the axonal transport of substance P the accumulation of the substance P in three segments of sciatic nerve two millimeters long was estimated 24 hours from the ligature of the same nerve.
The operations of the sciatic nerve ligature, of the tissues withdrawal from the same and of substance P extraction from the tissues for the radioimmunologic dosage, have been carried out by the following way.
The animals were anaesthetised by intraperitoneal administration of 35 mg/kg of pentobarbital dissolved in 0.9% physiologic solution. After wright thigh epilation and cutis section the sciatic nerve was exposed at half thigh level (at least 0.8 cm from the popliteal cavity where the nerve ramifies). The ligature has been made by sterile silk thread which has been twice knotted to about half of the exposed nerve portion.
The sacrifice has been accomplished after 8 weeks from the diabetes induction, after 24 hours from the ligature.
Immediately after the sacrifice, in the former operation seat, the removal of the whole sciatic nerve has been made and finally from this the three segments each about 2 mm long have been withdrawn: segment P1 (proximal contiguous to the ligature); segment P2 (immediately above P1) and segment D (distal contiguous to the ligature), as it is shown in fig. 1.
The withdrawn tissues have been placed in polypropylene test-tubes held in ice and containing a volume of acetic acid 1 N in 10:1 ratio with the tissue weight. Then the tissues homogenization has been done by a continuous speed variation homogenizer (Heavy Stirrer, mod. 12) and a polytetrafluoroethylene pestle perfectly adherent to the test-tube walls. After the homogenate aliquots required for the tissue proteins dosage have been withdrawn (0.1 ml) the test-tubes have been immerged in a boiling water bath for 8-10 minutes, for inactivating the peptidases eventually still present in the samples, and then left for about 30 minutes at 4 °C for completely cooling.
The […] obtained by centrifugation of the homogenate at 40.000 x g for 10 minutes, has been lyophilized and the dry residue has been reconstituted in distilled water, stirred by vortex and centrifuged at 40.000 x g for 10 minutes. From the samples so reconstituted the suitable aliquots required for the substance P radioimmunological dosage have been withdrawn. […]

[3] = Body weight and glycemia control in alloxan-diabetic rats; type: in vivo; conditions: diabetic animals 8 weeks after the diabetes induction, 10 mg/kg daily; for Glycemia: caudal vein blood before sacrifice
Experimental: The effectiveness verification of the substances inhibiting proteic ADP-ribosilation in preventing the diabetes mellitus complications has been carried out in vivo on rats in diabetes mellitus models induced by alloxan.
as §1
Groups 1) and 2) have been injected with an equivalent volume of physiologic solution.
as §2
The blood samples have been withdrawn at the caudal vein level before the animals sacrifice.

[4] = tested on: transducin; assay: In vitro ADP-ribosilation of retina membrane proteins G from treated diabetic rats (autoradiogram); type: in vivo; conditions: retina membrane fraction of diabetic rats treated at 50 mg/kg
From the text: A further experimentation on the silybin effect on the ADP-ribosilation of retina proteins G has been carried out. The evaluation of said proteins ribosilability has been performed by the method described by Duman et al. in J. Neurochem. (1991). pages 2124-2132.
For said experimentation the retinas withdrawn from the rats of the groups 1a), 2a) and 3a) used for the experimentation on the substance P axonal transport, were used.
The retinas have been homogenized and subdivided in cellular fractions and the membrane fraction has been selected for the ADP-ribosilation reaction in vitro.
2 which represents the autoradiogram of an electrophoretic gel obtained from said membrane cellular fraction.
Column 1P derives from the retinas of the control group rats, column 2P derives from the retinas of the diabetic rats and column 3P derives from the retinas of the diabetic rats treated with silybin at a 50 mg/kg dose.

[5] = tested on: 5 YSY neuroblastoma; assay: Neuritogenesis after retinoic acid in neuroblastoma cells cultured in chronic hyperglucosemia (in vitro diabetic neuropathy model); type: cell-based; conditions: substance 10⁻⁵ M; for Percentage of cells with neurits after retinoic acid addition: glucose 30 mM for three weeks
Experimental: A diabetic neuropathy in vitro model has been carried out using neuroblastoma cells cultured in chronic hyperglucosemia conditions. This condition causes the typical diabetes mellitus dismetabolic effects as the polyols (sorbitol) accumulation, the myoinositol reduction and the reduction of the Na pump functionality. […] A. Shahar et al. - Alan R., Liss.
In the groups from 2) to 4) glucose (30 mM) has been added to the culture renewing the culture medium and then adding glucose every 72 hours, during a three weeks period.
In the group 3), at the same time of the glucose, one of the substances inhibiting proteic ADP-ribosilation reported in the table 1 (amount 10⁻⁵ M) has been added.
In the group 4), at the same time of the glucose one of the substances non inhibiting proteic ADP-ribosilation reported in the table 1 (dermatan sulphate and tolrestat) in amount 10⁻⁵ M has been added.
Subsequently retinoic acid (5 x 10⁻⁶ M) has been added to the cultures 1) to 4) for causing the cells neuritogenesis which has been valued by the observation at the optic microscope considering as neurit the cytoplasmatic extension having a length corresponding at least to twice as the diameter of the cell.

[6] = 10 mg/kg daily (vitamin K1, dermatansulphate intraperitoneal; arachidic acid oral), 8 weeks after induction
[7] = 24 hours after ligature, 10 mg/kg daily (vitamin K1, dermatansulphate intraperitoneal; arachidic acid oral)
[8] = proximal segment above P1, 24 hours after ligature, 10 mg/kg daily (vitamin K1, dermatansulphate intraperitoneal; arachidic acid oral)
[9] = second experiment, oral 50 mg/kg/die

Row | Molecule | Myoinositol Incorporation [1] | Myoinositol Accumulation [1] | further results
1 | O=C1NC(=O)c2cccc3cccc1c23 [1.8 Naphthalimide, 1.8-naphthalimide] | 0.91 n mol/µg of protein | 9.20 n mol/µg of protein | 
2 | O=c1[nH]c2ccc([N+](=O)[O-])cc2c2ccccc12 [2-nitro-(6(5H)-phenanthridinone, 2-nitro-6(5H)-phenanthridinone] | 0.81 n mol/µg of protein | 8.51 n mol/µg of protein | 
3 | Nc1ccc2c3c(cccc13)C(=O)NC2=O [4-amino-1.8-naphthalimide] | 0.78 n mol/µg of protein | 8.01 n mol/µg of protein | 
4 | CC(=CCC1=C(C)C(=O)c2ccccc2C1=O)CCCC(C)CCCC(C)CCCC(C)C (stereo not drawn) [Vit K1, vitamin K1] | 0.98 n mol/µg of protein | 9.66 n mol/µg of protein | anterograde and retrograde accumulation of substance P, in words [2]: normalized; substance P content, NSc [2, 6]: 1.28±0.008 ng/mg of tissular protein; substance P content, D [2, 7]: 1.96±0.08 ng/mg of tissular protein; substance P content, P2 [2, 8]: 2.44±0.09 ng/mg of tissular protein; substance P content, P1 [2, 7]: 8.72±0.16 ng/mg of tissular protein; Body weight [3]: 244±12.6 gr.; Glycemia [3]: 438 ± 6.4 mg/dL
5 | CC1=CC(=O)c2ccccc2C1=O [Vit K3, vitamin K3] | 0.85 n mol/µg of protein | 8.56 n mol/µg of protein | 
6 | CCCCCCCCCCCCCCCCCCCC(=O)O [arachidic acid] | 0.92 n mol/µg of protein | 9.02 n mol/µg of protein | anterograde and retrograde accumulation of substance P, in words [2]: normalized; substance P content, NSc [2, 6]: 1.24±0.006 ng/mg of tissular protein; substance P content, D [2, 7]: 1.80±0.06 ng/mg of tissular protein; substance P content, P2 [2, 8]: 1.40±0.05 ng/mg of tissular protein; substance P content, P1 [2, 7]: 9.44±0.14 ng/mg of tissular protein; Body weight [3]: 239±12.6 gr.; Glycemia [3]: 471 ± 9.4 mg/dL
7 | O=c1cc(-c2ccccc2)oc2ccccc12 [flavone] | 0.67 n mol/µg of protein | 6.54 n mol/µg of protein | 
8 | CCCCC/C=C\C/C=C\CCCCCCCC(=O)O [linoleic acid (C18:2-cis-9.12), linoleic acid] | 0.88 n mol/µg of protein | 8.66 n mol/µg of protein | 
9 | CC/C=C\C/C=C\C/C=C\CCCCCCCC(=O)O [linolenic acid (C18:3-cis-9.12.15), linolenic acid] | 0.81 n mol/µg of protein | 8.44 n mol/µg of protein | 
10 | CCCCCCCCCCCCCC(=O)O [myristic acid] | 0.85 n mol/µg of protein | 8.91 n mol/µg of protein | 
11 | CO[C@@H]1[C@@H](OC(N)=O)[C@@H](O)[C@H](Oc2ccc3c(O)c(NC(=O)c4ccc(O)c(CC=C(C)C)c4)c(=O)oc3c2C)OC1(C)C [novobiocin] | 0.60 n mol/µg of protein | 6.0 n mol/µg of protein | 
12 | CCCCCCCCCCCCCCCC(=O)O [palmitic acid] | 0.89 n mol/µg of protein | 9.39 n mol/µg of protein | 
13 | COc1cc(C2Oc3cc([C@H]4Oc5cc(O)cc(O)c5C(=O)[C@@H]4O)ccc3OC2CO)ccc1O (stereo partly drawn) [silybin] |  |  | substance P content, NSc [2, 9]: 2.26±0.040 ng/mg of tissular protein; substance P content, D [2, 9]: 4.05±0.071 ng/mg of tissular protein; substance P content, P2 ([2]; second experiment, proximal segment above P1, oral 50 mg/kg/die): 7.07±0.59 ng/mg of tissular protein; substance P content, P1 [2, 9]: 11.42±0.18 ng/mg of tissular protein; transducin ribosilability, in words [4]: maintained
14 | CCCCCCCCCCCCCCCCCC(=O)O [stearic acid] | 0.95 n mol/µg of protein | 9.89 n mol/µg of protein | 
15 | COc1ccc2c(C(=S)N(C)CC(=O)O)cccc2c1C(F)(F)F [tolrestat] |  |  | prevention of the diabetic neuropathy (neuritogenesis), in words ([5]; glucose 30 mM): does not exercise any effect for preventing the diabetic neuropathy
16 | vitamin K2 [Vit K2] | 0.88 n mol/µg of protein | 8.99 n mol/µg of protein | Percentage of cells with neurits after retinoic acid addition ([5]; 3 days in retinoic acid): 45%; Percentage of cells with neurits after retinoic acid addition ([5]; 7 days in retinoic acid): 65%; Percentage of cells with neurits after retinoic acid addition ([5]; 12 days in retinoic acid): 98%
